Test results taken from patent US9630969B2, “N-alkyl tryptanthrin derivative, preparation method for same, and application thereof” (SHANGHAI TIN TSZ BIO VALLEY BIOLOGICAL ENGINEERING CO., LTD, priority 2013, dated 2017).
Read-outs that look alike come from different tables or passages of the source.

Key:
human IDO [1] = target: T1, human IDO (Homo sapiens, UniProt P14902); experiment: biochemical
T1 construct: made in house; host or cells: Escherichia coli
Experimental: The reaction was conducted under 37° C. for 30 minutes and was terminated by 30% (w/v) trichloroacetic acid (200 μl). The reaction system was heated under 65° C. for 15 minutes to convert the formyl kynurenine into kynurenine, and then rotated under 12000 rpm for 10 minutes. The supernatant was taken to mix with isometric p-dimethyl amidogen benzaldehyde in acetic acid (2% (w/v)) solution. The yellow color caused by the reaction of the mixture and kynurenine, can be observed at 490 nm by using Microplate Reader. The results were calculated with IC50 calculation software (see Table 1).

human IDO [2] = target: T1, human IDO; experiment: Determination of whether the inhibitor is reversible (v~[E] plot); assay type: biochemical; details: constant inhibitor concentration, different IDO enzyme amounts, 300 mM L-tryptophan, 37° C. 30 minutes
Experimental: In case that the inhibitor concentration was constant, a series of enzymes of different concentrations are reacted with the inhibitor and the reaction rate was measured. The reaction rate to the enzyme concentration (v˜[E]) was plotted, thus it can be determined that whether it is a reversible inhibitor according to the curve characteristics.
The mixture was incubated under 37° C. for 5 min, then different volumes of IDO enzymes were added. The reaction was conducted at 37° C. for 30 minutes and was terminated by adding 30% (w/v) trichloroacetic acid (200 μl). The reaction system was heated at 65° C. for 15 minutes to convert the formyl kynurenine to kynurenine, and then rotated under 12000 rpm for 10 minutes. The supernatant was taken to mix with isometric solution of p-dimethyl amidogen benzaldehyde in acetic acid (2% (w/v)). The off scale reading at 490 nm was observed using a Microplate Reader. The v˜[E] was plotted.

[3] = 150 mM substrate L-tryptophan, pH 6.5, 37° C. 30 minutes, read at 490 nm, read-out: IC50(in vitro)

T1 sequence (P14902 whole entry): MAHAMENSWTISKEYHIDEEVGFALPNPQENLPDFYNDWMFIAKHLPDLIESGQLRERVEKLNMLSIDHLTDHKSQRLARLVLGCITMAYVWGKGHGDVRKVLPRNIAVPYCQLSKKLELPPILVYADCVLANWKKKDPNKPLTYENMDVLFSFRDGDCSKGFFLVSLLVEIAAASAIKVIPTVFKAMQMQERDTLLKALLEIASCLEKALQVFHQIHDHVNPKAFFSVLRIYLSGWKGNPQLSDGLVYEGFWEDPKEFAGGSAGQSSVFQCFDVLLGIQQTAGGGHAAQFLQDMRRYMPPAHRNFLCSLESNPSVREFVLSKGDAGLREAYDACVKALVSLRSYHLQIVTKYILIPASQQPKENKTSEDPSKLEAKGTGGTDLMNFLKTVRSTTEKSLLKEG

| SMILES | IC50 (human IDO [1]; [3]) [µM] | Reversible Inhibitor or Not (human IDO [2]) | IC50 (human IDO [1]) [µM] |
| --- | --- | --- | --- |
| CN(C)c1ccc2nc3n(c(=O)c2c1)-c1ccc(F)cc1C3=O [Compound 7] | 10.3 | Reversible | – |
| O=C1c2cc(F)ccc2-n2c1nc1ccc(N3CCCCC3)cc1c2=O [Compound 9] | 1.8 | Reversible | – |
| CN1CCN(c2ccc3nc4n(c(=O)c3c2)-c2ccc(F)cc2C4=O)CC1 [Compound 6] | 2.2 | Reversible | – |
| O=C1c2cc(F)ccc2-n2c1nc1ccc(N3CCNCC3)cc1c2=O [Compound 5] | 1.19 | Reversible | – |
| CN1CCN(c2ccc3nc4n(c(=O)c3c2)-c2ccccc2C4=O)CC1 [Compound 11] | 8.01 | Reversible | – |
| O=C1c2c(N3CCNCC3)cccc2-n2c1nc1ccccc1c2=O [Comparison 1, 7-piperazine tryptanthrin, reference compound] | – | Reversible | 54.3 |
